Data as given in the supplement of paper PMC11451515.

Key:
Details in all cases: 48 h
SEM cells [1] = assay: cell viability relative to DMSO control; higher = less cytotoxic
Outline: (§1)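 Viability is a per-plate percentage relative to DMSO wells, with cell-free wells as background. CellTiter-Glo One luminescence was read after 48 h at 37°C on 1536-well plates (5 μl) of NOMO1 or SEM (500 cells/well) or P12-Ichikawa (1000 cells/well) leukemia cells. The cells had been adapted for at least four passages in each medium and pin-dosed with library compounds in DMSO from 47 μM to 0.79 nM in 11 threefold steps.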

P12-Ichikawa [2] = assay: as above
Outline: as §1

NOMO1 [3] = assay: as above
Outline: as §1

SEM cells [4] = assay: AUC of viability dose-response curve (% viability x log10 dose units); higher = less sensitive
Outline: (§2)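 Area under the curve was integrated by trapezoidal rule from a log-logistic fit of normalised viability, with curves exceeding full viability scaled and quality-control failures removed. The fit had four parameters over log10 doses. Viability came from CellTiter-Glo One luminescence, normalised per plate to DMSO and cell-free wells, after leukemia cells adapted to each medium (500 or 1000 cells/well, 1536-well plates) were exposed to library compounds in DMSO for 48 h at 37°C. The 11 threefold doses ran from 47 μM to 0.79 nM.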

P12-Ichikawa [5] = assay: as above
Outline: as §2

NOMO1 [6] = assay: as above
Outline: as §2

N[C@@H](CC(=O)N1CCn2c(nnc2C(F)(F)F)C1)Cc1cc(F)c(F)cc1F
cell viability [%]
Details | NOMO1 [3] | P12-Ichikawa [2] | SEM cells [1]
HPLM + 10% dialyzed FBS, 0.000781 µM | 119 | 100 | 111
HPLM + 10% dialyzed FBS, 0.00234 µM | 98.7 | 105 | 113
HPLM + 10% dialyzed FBS, 0.00702 µM | 111 | 104 | 110
HPLM + 10% dialyzed FBS, 0.0211 µM | 119 | 113 | 118
HPLM + 10% dialyzed FBS, 0.0632 µM | 100 | 109 | 105
HPLM + 10% dialyzed FBS, 0.19 µM | 106 | 104 | 105
HPLM + 10% dialyzed FBS, 0.569 µM | 103 | 102 | 99.8
HPLM + 10% dialyzed FBS, 1.71 µM | 102 | 103 | 117
HPLM + 10% dialyzed FBS, 5.12 µM | 109 | 98.2 | 107
HPLM + 10% dialyzed FBS, 15.4 µM | 94.9 | 97 | 41.9
HPLM + 10% dialyzed FBS, 46.1 µM | 83.5 | 94.7 | 93.3
RPMI 5 mM glucose + 10% FBS, 0.000781 µM | 83.3 | 91 | 100
RPMI 5 mM glucose + 10% FBS, 0.00234 µM | 97.4 | 103 | 104
RPMI 5 mM glucose + 10% FBS, 0.00702 µM | 84.6 | 97.3 | 98.1
RPMI 5 mM glucose + 10% FBS, 0.0211 µM | 86.4 | 95.8 | 102
RPMI 5 mM glucose + 10% FBS, 0.0632 µM | 92.4 | 99.2 | 132
RPMI 5 mM glucose + 10% FBS, 0.19 µM | 84.8 | 99.7 | 113
RPMI 5 mM glucose + 10% FBS, 0.569 µM | 86 | 92.8 | 106
RPMI 5 mM glucose + 10% FBS, 1.71 µM | 83.4 | – | 112
RPMI 5 mM glucose + 10% FBS, 5.12 µM | 96.2 | 95.4 | 109
RPMI 5 mM glucose + 10% FBS, 15.4 µM | 85.1 | 89.5 | 50
RPMI 5 mM glucose + 10% FBS, 46.1 µM | 82.9 | 88.3 | 96.4
RPMI 5 mM glucose + 10% dialyzed FBS, 0.000781 µM | 103 | 98.4 | 96.9
RPMI 5 mM glucose + 10% dialyzed FBS, 0.00234 µM | 96.3 | 94.5 | 118
RPMI 5 mM glucose + 10% dialyzed FBS, 0.00702 µM | 99.5 | 97.3 | 103
RPMI 5 mM glucose + 10% dialyzed FBS, 0.0211 µM | 95.2 | 100 | 97.4
RPMI 5 mM glucose + 10% dialyzed FBS, 0.0632 µM | 106 | 100 | 103
RPMI 5 mM glucose + 10% dialyzed FBS, 0.19 µM | 91.7 | 84.9 | 108
RPMI 5 mM glucose + 10% dialyzed FBS, 0.569 µM | 93.4 | 90.9 | 96.8
RPMI 5 mM glucose + 10% dialyzed FBS, 1.71 µM | 100 | 89.4 | 98.8
RPMI 5 mM glucose + 10% dialyzed FBS, 5.12 µM | 96.2 | 91.4 | 92.3
RPMI 5 mM glucose + 10% dialyzed FBS, 15.4 µM | 94.8 | 91.3 | 40.1
RPMI 5 mM glucose + 10% dialyzed FBS, 46.1 µM | 79.5 | 88 | 98.6

AUC of viability dose-response curve
Details | NOMO1 [6] | P12-Ichikawa [5] | SEM cells [4]
HPLM + 10% dialyzed FBS | 451 | 463 | 448
RPMI 5 mM glucose + 10% FBS | 417 | 453 | 453
RPMI 5 mM glucose + 10% dialyzed FBS | 461 | 445 | 449

COc1cc2ncnc(Nc3cccc(Br)c3)c2cc1OC
cell viability [%]
Details | NOMO1 [3] | P12-Ichikawa [2] | SEM cells [1]
HPLM + 10% dialyzed FBS, 0.000781 µM | 90.4 | 88.8 | 85.1
HPLM + 10% dialyzed FBS, 0.00234 µM | 98.3 | 101 | 84.7
HPLM + 10% dialyzed FBS, 0.00702 µM | 101 | 103 | 94.3
HPLM + 10% dialyzed FBS, 0.0211 µM | 98.9 | 100 | 94.7
HPLM + 10% dialyzed FBS, 0.0632 µM | 109 | 97.6 | 102
HPLM + 10% dialyzed FBS, 0.19 µM | 120 | 105 | 98
HPLM + 10% dialyzed FBS, 0.569 µM | 108 | 110 | 114
HPLM + 10% dialyzed FBS, 1.71 µM | 118 | 98.4 | 118
HPLM + 10% dialyzed FBS, 5.12 µM | 98.2 | 102 | 114
HPLM + 10% dialyzed FBS, 15.4 µM | 94.5 | 111 | 103
HPLM + 10% dialyzed FBS, 46.1 µM | 86.1 | 106 | 91.5
RPMI 5 mM glucose + 10% FBS, 0.000781 µM | 98 | 87.9 | 113
RPMI 5 mM glucose + 10% FBS, 0.00234 µM | 95.9 | 97.6 | 87.9
RPMI 5 mM glucose + 10% FBS, 0.00702 µM | 106 | 105 | 102
RPMI 5 mM glucose + 10% FBS, 0.0211 µM | 110 | 103 | 131
RPMI 5 mM glucose + 10% FBS, 0.0632 µM | 109 | 108 | 122
RPMI 5 mM glucose + 10% FBS, 0.19 µM | 108 | 107 | 119
RPMI 5 mM glucose + 10% FBS, 0.569 µM | 110 | 117 | 113
RPMI 5 mM glucose + 10% FBS, 1.71 µM | 111 | 99.8 | 136
RPMI 5 mM glucose + 10% FBS, 5.12 µM | 106 | 114 | 121
RPMI 5 mM glucose + 10% FBS, 15.4 µM | 112 | 112 | 110
RPMI 5 mM glucose + 10% FBS, 46.1 µM | 117 | 106 | 89.9
RPMI 5 mM glucose + 10% dialyzed FBS, 0.000781 µM | 80.8 | 95.9 | 75
RPMI 5 mM glucose + 10% dialyzed FBS, 0.00234 µM | 90.6 | 91.5 | 75.2
RPMI 5 mM glucose + 10% dialyzed FBS, 0.00702 µM | 98.6 | 106 | 86
RPMI 5 mM glucose + 10% dialyzed FBS, 0.0211 µM | 97.4 | 104 | 97.4
RPMI 5 mM glucose + 10% dialyzed FBS, 0.0632 µM | 103 | 114 | 110
RPMI 5 mM glucose + 10% dialyzed FBS, 0.19 µM | 103 | 112 | 103
RPMI 5 mM glucose + 10% dialyzed FBS, 0.569 µM | 102 | 113 | 120
RPMI 5 mM glucose + 10% dialyzed FBS, 1.71 µM | 112 | 109 | 110
RPMI 5 mM glucose + 10% dialyzed FBS, 5.12 µM | 102 | 109 | 104
RPMI 5 mM glucose + 10% dialyzed FBS, 15.4 µM | 102 | 112 | 96.3
RPMI 5 mM glucose + 10% dialyzed FBS, 46.1 µM | 101 | 105 | 78.6

AUC of viability dose-response curve
Details | NOMO1 [6] | P12-Ichikawa [5] | SEM cells [4]
HPLM + 10% dialyzed FBS | 475 | 451 | 447
RPMI 5 mM glucose + 10% FBS | 447 | 462 | 460
RPMI 5 mM glucose + 10% dialyzed FBS | 460 | 464 | 448

COc1ccc(Nc2cc(-c3cnc(N)nc3)nc(N3CCOCC3)n2)cn1
cell viability [%]
Details | NOMO1 [3] | P12-Ichikawa [2] | SEM cells [1]
HPLM + 10% dialyzed FBS, 0.000781 µM | 105 | 98.7 | 93.8
HPLM + 10% dialyzed FBS, 0.00234 µM | 105 | 101 | 96.7
HPLM + 10% dialyzed FBS, 0.00702 µM | 84.5 | 98.4 | 90.6
HPLM + 10% dialyzed FBS, 0.0211 µM | 97.2 | 102 | 96.8
HPLM + 10% dialyzed FBS, 0.0632 µM | 83.3 | 103 | 99.4
HPLM + 10% dialyzed FBS, 0.19 µM | 87 | 94.9 | 102
HPLM + 10% dialyzed FBS, 0.569 µM | 76.6 | 96.7 | 92.6
HPLM + 10% dialyzed FBS, 1.71 µM | 79.9 | 89.9 | 84.7
HPLM + 10% dialyzed FBS, 5.12 µM | 54.7 | 63.7 | 47.3
HPLM + 10% dialyzed FBS, 15.4 µM | 46.8 | 71.1 | 59.8
HPLM + 10% dialyzed FBS, 46.1 µM | 39.6 | 71.9 | 44.6
RPMI 5 mM glucose + 10% FBS, 0.000781 µM | 82.6 | 89.9 | 104
RPMI 5 mM glucose + 10% FBS, 0.00234 µM | 90.2 | 90.9 | 104
RPMI 5 mM glucose + 10% FBS, 0.00702 µM | 88.2 | 93.9 | 110
RPMI 5 mM glucose + 10% FBS, 0.0211 µM | 84.4 | 90.7 | 115
RPMI 5 mM glucose + 10% FBS, 0.0632 µM | 83.4 | 100 | 120
RPMI 5 mM glucose + 10% FBS, 0.19 µM | 88 | 87.7 | 99.5
RPMI 5 mM glucose + 10% FBS, 0.569 µM | 78.4 | 89.5 | 108
RPMI 5 mM glucose + 10% FBS, 1.71 µM | 84.8 | 79.3 | 99
RPMI 5 mM glucose + 10% FBS, 5.12 µM | 60.5 | 52.2 | 52.8
RPMI 5 mM glucose + 10% FBS, 15.4 µM | 65.4 | 54.1 | 65.6
RPMI 5 mM glucose + 10% FBS, 46.1 µM | 52.7 | 56.6 | 57
RPMI 5 mM glucose + 10% dialyzed FBS, 0.000781 µM | 86.8 | 93.7 | 98.6
RPMI 5 mM glucose + 10% dialyzed FBS, 0.00234 µM | 91.8 | 90.4 | 89.5
RPMI 5 mM glucose + 10% dialyzed FBS, 0.00702 µM | 85.3 | 95.8 | 91
RPMI 5 mM glucose + 10% dialyzed FBS, 0.0211 µM | 88 | 98.7 | 105
RPMI 5 mM glucose + 10% dialyzed FBS, 0.0632 µM | 91.6 | 102 | 97
RPMI 5 mM glucose + 10% dialyzed FBS, 0.19 µM | 76.8 | 98.6 | 80.9
RPMI 5 mM glucose + 10% dialyzed FBS, 0.569 µM | 71.3 | 86.3 | 89.6
RPMI 5 mM glucose + 10% dialyzed FBS, 1.71 µM | 75.1 | 88.1 | 89.7
RPMI 5 mM glucose + 10% dialyzed FBS, 5.12 µM | 56.4 | 50.4 | 43.9
RPMI 5 mM glucose + 10% dialyzed FBS, 15.4 µM | 56.8 | 54.1 | 57.4
RPMI 5 mM glucose + 10% dialyzed FBS, 46.1 µM | 44.5 | 51.7 | 44.5

AUC of viability dose-response curve
Details | NOMO1 [6] | P12-Ichikawa [5] | SEM cells [4]
HPLM + 10% dialyzed FBS | 373 | 433 | 398
RPMI 5 mM glucose + 10% FBS | 375 | 387 | 418
RPMI 5 mM glucose + 10% dialyzed FBS | 361 | 399 | 389
